# Source: ChEMBL document CHEMBL4725331, “An investigative study of antitumor properties of a novel thiazolo[4,5-d]pyrimidine small molecule revealing superior antitumor activity with CDK1 selectivity and potent pro-apoptotic properties” (Bioorg Med Chem, 2020)
# Tests used:
# [1] = test system: Hs-578T; test: Antiproliferative activity against human Hs-578T cells assessed as inhibition of cell growth measured after 48 hrs by SRB assay; format: functional
# [2] = test system: M14; test: Antiproliferative activity against human M14 cells assessed as inhibition of cell growth measured after 48 hrs by SRB assay; format: functional
# [3] = test system: HCT-15; test: Antiproliferative activity against human HCT-15 cells assessed as inhibition of cell growth at 10 uM measured after 48 hrs by SRB assay relative to control; format: functional
# [4] = test system: SNB-75; test: Antiproliferative activity against human SNB-75 cells assessed as inhibition of cell growth measured after 48 hrs by SRB assay; format: functional
# [5] = test system: SF-539; test: Antiproliferative activity against human SF-539 cells assessed as inhibition of cell growth at 10 uM measured after 48 hrs by SRB assay relative to control; format: functional
# [6] = test system: HCT-116; test: Antiproliferative activity against human HCT-116 cells assessed as inhibition of cell growth at 10 uM measured after 48 hrs by SRB assay relative to control; format: functional
# [7] = test system: SK-MEL-2; test: Antiproliferative activity against human SK-MEL-2 cells assessed as inhibition of cell growth at 10 uM measured after 48 hrs by SRB assay relative to control; format: functional
# [8] = test system: HCT-116; test: Induction of apoptosis in human HCT116 cells assessed as up regulation of cytochrome C expression by RT-PCR analysis relative to untreated control; format: functional
# [9] = test system: OVCAR-8; test: Antiproliferative activity against human OVCAR-8 cells assessed as inhibition of cell growth at 10 uM measured after 48 hrs by SRB assay relative to control; format: functional
# [10] = test system: SNB-19; test: Antiproliferative activity against human SNB-19 cells assessed as inhibition of cell growth at 10 uM measured after 48 hrs by SRB assay relative to control; format: functional
# [11] = test system: SNB-19; test: Antiproliferative activity against human SNB-19 cells assessed as inhibition of cell growth measured after 48 hrs by SRB assay; format: functional
# [12] = test system: MDA-MB-435; test: Antiproliferative activity against human MDA-MB-435 cells assessed as inhibition of cell growth at 10 uM measured after 48 hrs by SRB assay relative to control; format: functional
# [13] = test system: A549; test: Antiproliferative activity against human A549 cells assessed as inhibition of cell growth measured after 48 hrs by SRB assay; format: functional
# [14] = test system: U-251; test: Antiproliferative activity against human U-251 cells assessed as inhibition of cell growth measured after 48 hrs by SRB assay; format: functional
# [15] = test system: HT-29; test: Antiproliferative activity against human HT-29 cells assessed as inhibition of cell growth measured after 48 hrs by SRB assay; format: functional
# [16] = test system: RXF 393; test: Antiproliferative activity against human RXF 393 cells assessed as inhibition of cell growth measured after 48 hrs by SRB assay; format: functional
# [17] = test system: WI-38; test: Cell cycle arrest in human WI-38 cells assessed as accumulation in G0/G1 phase at IC50 concentration incubated for 48 hrs by propidium iodide staining based flow cytometry analysis (reference value: 57.68 %); details: wi-38, 48 h
# [18] = test system: EKVX; test: Antiproliferative activity against human EKVX cells assessed as inhibition of cell growth measured after 48 hrs by SRB assay; format: functional
# [19] = test system: SK-OV-3; test: Antiproliferative activity against human SK-OV-3 cells assessed as inhibition of cell growth at 10 uM measured after 48 hrs by SRB assay relative to control; format: functional
# [20] = test system: A498; test: Antiproliferative activity against human A498 cells assessed as inhibition of cell growth measured after 48 hrs by SRB assay; format: functional
# [21] = test system: LOX IMVI; test: Antiproliferative activity against human LOX IMVI cells assessed as inhibition of cell growth measured after 48 hrs by SRB assay; format: functional
# [22] = test system: K562; test: Antiproliferative activity against human K562 cells assessed as inhibition of cell growth at 10 uM measured after 48 hrs by SRB assay relative to control; format: functional
# [23] = test system: TK-10; test: Antiproliferative activity against human TK-10 cells assessed as inhibition of cell growth measured after 48 hrs by SRB assay; format: functional
# [24] = Selectivity index, ratio of IC50 for human WI-38 cells to IC50 for human HCT116 cells after 48 hrs by MTT assay; format: toxicity; details: WI-38 cells versus HCT116 cells, read-out: Ratio IC50
# [25] = test system: HCT-116; test: Induction of apoptosis in human HCT116 cells assessed as up regulation of caspase-9 expression by RT-PCR analysis relative to untreated control; format: functional
# [26] = test system: NCI-H23; test: Antiproliferative activity against human NCI-H23 cells assessed as inhibition of cell growth measured after 48 hrs by SRB assay; format: functional
# [27] = test system: MCF7; test: Antiproliferative activity against human MCF7 cells assessed as inhibition of cell growth measured after 48 hrs by SRB assay; format: functional
# [28] = test system: HCT-116; test: Induction of apoptosis in human HCT-116 cells assessed as early apoptotic cells at IC50 incubated for 48 hrs by annexin-V FITC and propidium iodide staining based flow cytometry analysis (reference value: 1.67 %); format: functional
# [29] = test system: HOP-92; test: Antiproliferative activity against human HOP-92 cells assessed as inhibition of cell growth measured after 48 hrs by SRB assay; format: functional
# [30] = test system: NCI-H460; test: Antiproliferative activity against human NCI-H460 cells assessed as inhibition of cell growth measured after 48 hrs by SRB assay; format: functional
# [31] = test system: OVCAR-8; test: Antiproliferative activity against human OVCAR-8 cells assessed as inhibition of cell growth measured after 48 hrs by SRB assay; format: functional
# [32] = test system: HCT-15; test: Antiproliferative activity against human HCT-15 cells assessed as inhibition of cell growth measured after 48 hrs by SRB assay; format: functional
# [33] = test system: NCI-H23; test: Antiproliferative activity against human NCI-H23 cells assessed as inhibition of cell growth at 10 uM measured after 48 hrs by SRB assay relative to control; format: functional
# [34] = test system: SN12C; test: Antiproliferative activity against human SN12C cells assessed as inhibition of cell growth at 10 uM measured after 48 hrs by SRB assay relative to control; format: functional
# [35] = read-out: LC50 (the source's name)
structure (smiles),measurement,setting,value
COc1ccc(-n2c(=S)sc3c(Cl)nc(C)nc32)c(OC)c1,GI50,[1],2.63 µM
same,TGI,[1],7.76 µM
same,CC50,[1]; [35],> 100 µM
same,GI50,[2],1.86 µM
same,TGI,[2],4.07 µM
same,CC50,[2]; [35],8.91 µM
same,inhibition at 10 µM,[3],> 50%
same,GI50,[4],1.95 µM
same,TGI,[4],4.27 µM
same,CC50,[4]; [35],9.33 µM
same,inhibition at 10 µM,[5],> 50%
same,inhibition at 10 µM,[6],> 50%
same,inhibition at 10 µM,[7],> 50%
same,fold change (FC),[8],8.02
same,inhibition at 10 µM,[9],> 50%
same,inhibition at 10 µM,[10],> 50%
same,GI50,[11],2.4 µM
same,TGI,[11],5.37 µM
same,CC50,[11]; [35],17 µM
same,inhibition at 10 µM,[12],> 50%
same,GI50,[13],4.47 µM
same,TGI,[13],15.8 µM
same,CC50,[13]; [35],40.7 µM
same,GI50,[14],1.91 µM
same,TGI,[14],3.63 µM
same,CC50,[14]; [35],6.92 µM
same,GI50,[15],2.4 µM
same,TGI,[15],6.31 µM
same,CC50,[15]; [35],57.5 µM
same,GI50,[16],2 µM
same,TGI,[16],4.07 µM
same,CC50,[16]; [35],8.32 µM
same,Activity,[17],54.45%
same,GI50,[18],4.57 µM
same,TGI,[18],17 µM
same,CC50,[18]; [35],43.6 µM
same,inhibition at 10 µM,[19],> 50%
same,GI50,[20],11.5 µM
same,TGI,[20],24 µM
same,CC50,[20]; [35],49 µM
same,GI50,[21],1.7 µM
same,TGI,[21],3.16 µM
same,CC50,[21]; [35],6.03 µM
same,inhibition at 10 µM,[22],> 50%
same,GI50,[23],4.68 µM
same,TGI,[23],18.6 µM
same,CC50,[23]; [35],58.9 µM
same,selectivity ratio at 48 h,[24],4
same,fold change (FC),[25],15.9
same,GI50,[26],2.45 µM
same,TGI,[26],5.89 µM
same,CC50,[26]; [35],57.5 µM
same,GI50,[27],3.63 µM
same,TGI,[27],15.5 µM
same,CC50,[27]; [35],87.1 µM
same,Activity,[28],5.38%
same,GI50,[29],2.04 µM
same,TGI,[29],8.51 µM
same,CC50,[29]; [35],31.6 µM
same,GI50,[30],3.09 µM
same,TGI,[30],9.12 µM
same,CC50,[30]; [35],49 µM
same,GI50,[31],2.69 µM
same,TGI,[31],7.41 µM
same,CC50,[31]; [35],40.7 µM
same,GI50,[32],1.95 µM
same,TGI,[32],5.37 µM
same,CC50,[32]; [35],41.7 µM
same,inhibition at 10 µM,[33],> 50%
same,inhibition at 10 µM,[34],> 50%
